Counter-ions that a name gives are not always drawn.
Biological target: human TDO2 (Homo sapiens (Human), UniProt P48775)
Assay: Cellular assay for TDO2 activity, A172 cells naturally expressing hTDO2
Type: cell-based
Conditions: human glioblastoma A172 cells, overnight incubation, kynurenine in supernatant
Protocol: A172 is a cell line derived from human brain glioblastoma cells.
To determine TDO, the cells were incubated overnight at 37° C. at 5% CO2 in IMDM (Invitrogen) supplemented with 2% FBS and 2% penicillin/streptomycin in the presence of the compounds of the present invention, at different concentrations.
The plates were then centrifuged 5 min at 1000 rpm, and 100 μL of the supernatant were collected in a conical plate, 30 uL of TCA 30% were added and a further centrifugated at 3000×g for 10 minutes. 100 μL of the supernatant were collected in a flat bottomed plate and 100 μL of 2% (w/v) 4-(dimethylamino)-benzaldehyde in acetic acid and incubated for 5 min at room temperature. Kynurenine concentrations were determined by measuring the absorbance at 480 nm. A standard curve was made with pure kynurenine. The TDO activity was measured as described above using ten serial concentrations of the compounds of the present invention. Data were fitted using the Prism™ software (GraphPad Software, Inc.) using standard software configurations.

human TDO2, sequence (P48775 whole entry): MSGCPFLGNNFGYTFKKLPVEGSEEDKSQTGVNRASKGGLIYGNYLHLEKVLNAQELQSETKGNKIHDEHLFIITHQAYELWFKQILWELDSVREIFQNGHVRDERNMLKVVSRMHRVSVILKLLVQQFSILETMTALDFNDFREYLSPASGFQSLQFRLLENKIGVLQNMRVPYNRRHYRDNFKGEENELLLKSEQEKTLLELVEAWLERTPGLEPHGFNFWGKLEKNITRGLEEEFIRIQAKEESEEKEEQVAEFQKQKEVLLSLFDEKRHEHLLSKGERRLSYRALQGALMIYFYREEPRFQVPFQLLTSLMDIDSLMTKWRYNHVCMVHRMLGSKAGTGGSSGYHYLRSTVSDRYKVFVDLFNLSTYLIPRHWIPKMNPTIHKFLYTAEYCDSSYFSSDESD

SMILES	IC50 [nM]
N[C@@H](Cc1ccccc1)C(=O)Nc1ccc(-c2c[nH]c3cc(F)ccc23)cn1 [Example 36, (S)-2-amino-N-(5-(6-fluoro-1H-indol-3-yl)pyridin-2-yl)-3-phenylpropanamide]	1100
CC(C)[C@H](N)C(=O)Nc1ccc(-c2c[nH]c3cc(F)ccc23)cn1 [Example 38, (S)-2-amino-N-(5-(6-fluoro-1H-indol-3-yl)pyridin-2-yl)-3-methylbutanamide]	740
CC(=O)N1CCC(C(=O)Nc2ccc(-c3c[nH]c4cc(F)ccc34)cn2)CC1 [Example 42, 1-acetyl-N-(5-(6-fluoro-1H-indol-3-yl)pyridin-2-yl)piperidine-4-carboxamide]	520
COCCS(=O)(=O)NC1CCN(c2ccc(-c3c[nH]c4cc(F)ccc34)cn2)CC1 [Example 57, N-(1-(5-(6-fluoro-1H-indol-3-yl)pyridin-2-yl)piperidin-4-yl)-2-methoxyethanesulfonamide]	1400
O=C(Nc1ccc(-c2c[nH]c3cc(F)ccc23)cn1)[C@@H]1CCCN1 [Example 58, (S)—N-(5-(6-fluoro-1H-indol-3-yl)pyridin-2-yl)pyrrolidine-2-carboxamide]	810
O=S(=O)(CCN1CCOCC1)NC1CCN(c2ccc(-c3c[nH]c4cc(F)ccc34)cn2)CC1 [Example 59, N-(1-(5-(6-fluoro-1H-indol-3-yl)pyridin-2-yl)piperidin-4-yl)-2-morpholinoethanesulfonamide]	1400
CS(=O)(=O)Nc1ccc(-c2c[nH]c3cc(F)ccc23)cn1 [Example 60, N-(5-(6-fluoro-1H-indol-3-yl)pyridin-2-yl)methanesulfonamide]	700
O=S(=O)(CCO)NC1CCN(c2ccc(-c3c[nH]c4cc(F)ccc34)cn2)CC1 [Example 62, N-(1-(5-(6-fluoro-1H-indol-3-yl)pyridin-2-yl)piperidin-4-yl)-2-hydroxyethanesulfonamide]	1300
NC(=O)Nc1ccc(-c2c[nH]c3cc(F)ccc23)cn1 [Example 63, 1-(5-(6-fluoro-1H-indol-3-yl)pyridin-2-yl)urea]	360
CS(=O)(=O)NCCC(=O)Nc1ccc(-c2c[nH]c3cc(F)ccc23)cn1 [Example 64, N-(5-(6-fluoro-1H-indol-3-yl)pyridin-2-yl)-3-(methylsulfonamido)propanamide]	870
CN(C)C(=O)Nc1ccc(-c2c[nH]c3cc(F)ccc23)cn1 [Example 65, 3-(5-(6-fluoro-1H-indol-3-yl)pyridin-2-yl)-1,1-dimethylurea]	820
CNC(=O)Nc1ccc(-c2c[nH]c3cc(F)ccc23)cn1 [Example 66, 1-(5-(6-fluoro-1H-indol-3-yl)pyridin-2-yl)-3-methylurea]	440
Nc1nc2ccc(-c3ccc(-c4c[nH]c5cc(F)ccc45)cn3)cc2[nH]1 [Example 67, 6-(5-(6-fluoro-1H-indol-3-yl)pyridin-2-yl)-1H-benzo[d]imidazol-2-amine]	460
Cn1cc(-c2c[nH]c3cc(F)ccc23)ccc1=O [Example 68, 5-(6-fluoro-1H-indol-3-yl)-1-methylpyridin-2(1H)-one]	480
CS(=O)(=O)NCCCC(=O)Nc1ccc(-c2c[nH]c3cc(F)ccc23)cn1 [Example 70, N-(5-(6-fluoro-1H-indol-3-yl)pyridin-2-yl)-4-(methylsulfonamido)butanamide]	720
O=c1[nH]c2ncc(-c3c[nH]c4cc(F)ccc34)cc2o1 [Example 71, 6-(6-fluoro-1H-indol-3-yl)oxazolo[4,5-b]pyridin-2(3H)-one]	1400
CS(=O)(=O)NC1CCN(c2ccc(-c3c[nH]c4cc(Cl)ccc34)cn2)CC1 [Example 72, N-(1-(5-(6-chloro-1H-indol-3-yl)pyridin-2-yl)piperidin-4-yl)methanesulfonamide]	4700
O=c1[nH]c2cc(-c3c[nH]c4cc(F)ccc34)cnc2[nH]1 [Example 73, 6-(6-fluoro-1H-indol-3-yl)-1H-imidazo[4,5-b]pyridin-2(3H)-one]	600
Cc1nc2ncc(-c3c[nH]c4cc(F)ccc34)cc2o1 [Example 74, 6-(6-fluoro-1H-indol-3-yl)-2-methyloxazolo[4,5-b]pyridine]	400
Cc1nc2cc(-c3c[nH]c4cc(F)ccc34)cnc2o1 [Example 75, 6-(6-fluoro-1H-indol-3-yl)-2-methyloxazolo[5,4-b]pyridine]	500
O=C1Cc2ncc(-c3c[nH]c4cc(F)ccc34)cc2N1 [Example 76, 6-(6-fluoro-1H-indol-3-yl)-1H-pyrrolo[3,2-b]pyridin-2(3H)-one]	4100
CS(=O)(=O)NC1CCN(c2ccc(-c3c[nH]c4ccc(Cl)cc34)cn2)CC1 [Example 77, N-(1-(5-(5-chloro-1H-indol-3-yl)pyridin-2-yl)piperidin-4-yl)methanesulfonamide]	2800

SMILES	IC50 [nM]
CS(=O)(=O)NC1CCN(c2ccc(-c3c[nH]c4ccccc34)cn2)CC1 [Example 79, N-(1-(5-(1H-indol-3-yl)pyridin-2-yl)piperidin-4-yl)methanesulfonamide]	1200
NS(=O)(=O)c1ccc(-c2c[nH]c3cc(F)ccc23)cn1 [Example 80, 5-(6-fluoro-1H-indol-3-yl)pyridine-2-sulfonamide hydrochloride]	310
CS(=O)(=O)NC1CCN(c2ccc(-c3c[nH]c4ccc(F)cc34)cn2)CC1 [Example 81, N-(1-(5-(5-fluoro-1H-indol-3-yl)pyridin-2-yl)piperidin-4-yl)methanesulfonamide]	2000
O=C1COCCN1c1ccc(-c2c[nH]c3cc(F)ccc23)cn1 [Example 82, 4-(5-(6-fluoro-1H-indol-3-yl)pyridin-2-yl)morpholin-3-one]	590
O=C1CNCCN1c1ccc(-c2c[nH]c3cc(F)ccc23)cn1 [Example 83, 1-(5-(6-fluoro-1H-indol-3-yl)pyridin-2-yl)piperazin-2-one]	1500
O=C(O)Cn1c(=O)[nH]c2cc(-c3c[nH]c4cc(F)ccc34)cnc21 [Example 85, 2-(6-(6-fluoro-1H-indol-3-yl)-2-oxo-1H-imidazo[4,5-b]pyridin-3(2H)-yl)acetic acid]	2300
CCOC(=O)Cn1c(=O)[nH]c2cc(-c3c[nH]c4cc(F)ccc34)cnc21 [Example 86, ethyl 2-(6-(6-fluoro-1H-indol-3-yl)-2-oxo-1H-imidazo[4,5-b]pyridin-3(2H)-yl)acetate]	610
O=S(=O)(c1ccc(-c2c[nH]c3cc(F)ccc23)cn1)N1CCNCC1 [Example 87, 6-fluoro-3-(6-(piperazin-1-ylsulfonyl)pyridin-3-yl)-1H-indole]	230
CS(=O)(=O)NCCNS(=O)(=O)c1ccc(-c2c[nH]c3cc(F)ccc23)cn1 [Example 88, 5-(6-fluoro-1H-indol-3-yl)-N-(2-(methylsulfonamido)ethyl)pyridine-2-sulfonamide]	350
CN(CCNS(=O)(=O)c1ccc(-c2c[nH]c3cc(F)ccc23)cn1)S(C)(=O)=O [Example 89, 5-(6-fluoro-1H-indol-3-yl)-N-(2-(N-methylmethylsulfonamido)ethyl)pyridine-2-sulfonamide]	350
CS(=O)(=O)N1CCN(S(=O)(=O)c2ccc(-c3c[nH]c4cc(F)ccc34)cn2)CC1 [Example 90, 6-fluoro-3-(6-((4-(methylsulfonyl)piperazin-1-yl)sulfonyl)pyridin-3-yl)-1H-indole]	1400
CN(CCNS(C)(=O)=O)S(=O)(=O)c1ccc(-c2c[nH]c3cc(F)ccc23)cn1 [Example 91, 5-(6-fluoro-1H-indol-3-yl)-N-methyl-N-(2-(methylsulfonamido)ethyl)pyridine-2-sulfonamide]	270
CC(=O)NCCNS(=O)(=O)c1ccc(-c2c[nH]c3cc(F)ccc23)cn1 [Example 92, N-(2-(5-(6-fluoro-1H-indol-3-yl)pyridine-2-sulfonamido)ethyl)acetamide]	330
O=S(=O)(c1ccc(-c2c[nH]c3ccccc23)cn1)N1CCNCC1 [Example 93, 3-(6-(piperazin-1-ylsulfonyl)pyridin-3-yl)-1H-indole]	200
O=S(=O)(c1ccc(-c2c[nH]c3cc(F)c(F)cc23)cn1)N1CCNCC1 [Example 94, 5,6-difluoro-3-(6-(piperazin-1-ylsulfonyl)pyridin-3-yl)-1H-indole]	240
O=S(=O)(c1ccc(-c2c[nH]c3ccc(F)cc23)cn1)N1CCNCC1 [Example 95, 5-fluoro-3-(6-(piperazin-1-ylsulfonyl)pyridin-3-yl)-1H-indole]	370
Cc1ccc2[nH]cc(-c3ccc(S(=O)(=O)N4CCNCC4)nc3)c2c1 [Example 96, 5-methyl-3-(6-(piperazin-1-ylsulfonyl)pyridin-3-yl)-1H-indole]	530
N#Cc1ccc2[nH]cc(-c3ccc(S(=O)(=O)N4CCNCC4)nc3)c2c1 [Example 97, 3-(6-(piperazin-1-ylsulfonyl)pyridin-3-yl)-1H-indole-5-carbonitrile]	2400
Cc1ccc2c(-c3ccc(S(=O)(=O)N4CCNCC4)nc3)c[nH]c2c1 [Example 98, 6-methyl-3-(6-(piperazin-1-ylsulfonyl)pyridin-3-yl)-1H-indole]	1400
NC(=O)CCNS(=O)(=O)c1ccc(-c2c[nH]c3cc(F)ccc23)cn1 [Example 99, 3-(5-(6-fluoro-1H-indol-3-yl)pyridine-2-sulfonamido)propanamide]	370
Fc1ccc2c(-c3ccc(NC4CCOCC4)nc3)c[nH]c2c1 [Example 100, 5-(6-fluoro-1H-indol-3-yl)-N-(tetrahydro-2H-pyran-4-yl)pyridin-2-amine]	620

— US9758505B2, “3-(indol-3-yl)-pyridine derivatives, pharmaceutical compositions and methods for use” (ITEOS THERAPEUTICS, priority 2014, dated 2017)
